The values that follow come from patent US20240197772A1, “COMPOSITIONS COMPRISING ONE OR MORE HMO'S WITH A CORE OF LacNAc-Lac” (FrieslandCampina Nederland B.V., priority 2020, published 2024).

One assay has as its system IL19. The assay can be described thus: PCR gene expression of IL19 in PBMCs incubated with single HMOs. It counts as cell-based, human. The following applies: PBMCs of 3 donors, 0.5 mg/ml HMO, 5 h, average, control set as 1, GAPDH reference gene. How it is done:
(§1) The effect of single HMOs on the expression of genes relevant to cholesterol metabolism and atherogenesis was tested using Peripheral Blood Mononuclear Cells (PBMCs) from 3 donors and incubated those cells with 0.5 g/l of single HMOs. The level of expression was determined using PCR.
(§2) Peripheral blood mononuclear cells (PBMC's) were isolated from a buffy coat using Sepmate tubes. The cells were diluted to a concentration of 1*10^7 cells per ml. The PBMC's were seeded in 6 wells plates and treated with 0.5 g/l of each HMO in PBMC culturing medium for 5 h prior to RNA isolation. Each HMO was mixed with 100 ug/ml final concentration of Polymyxin B to ensure neutralization of possible endotoxin contamination of HMOs, while equal amounts of Polymyxin B were used as a control.
(§3) 500 ng RNA, isolated from PBMCs, was translated into cDNA, using the quantitect reverse transcription kit (Qiagen). Primersets for the regulated genes (shown in the table below), were ordered at Qiagen (Quantitect primer assays). From each condition (PBMCs of 3 donors in control situation and after exposure towards HMOs (5 hrs)) cDNA (100×, 10× for genes which were low expressed) was amplified using the different primersets.
(§4) GAPDH (Glyceraldehyde-3-Phosphate Dehydrogenase) was used as a reference gene to quantify changes of gene expression between the control and the HMO-treated cells.
(§5) • GAPDH: Hs_GAPDH_vb.1_SG QuantiTect Primer Assay • IL19: Hs_IL19_1_SG QuantiTect Primer Assay • CD36: Hs_CD36_3_SG QuantiTect Primer Assay • GPR43/FFAR2: Hs_FFAR2_2_SG QuantiTect Primer Assay • ABCA1: Hs_ABCA1_1_SG QuantiTect Primer Assay
(§6) 19 commercially available HMO's that are present in human milk were tested. All gene expression values were calibrated to the Polymyxin B control of each respective donor (set arbitrary as 1). Average values for each gene compared to the Polymyxin B control are shown below (values above 1.5 fold or below 0.5 fold were considered physiologically relevant).

The next assay relates to GPR43/FFAR2. Put plainly: PCR gene expression of GPR43/FFAR2 in PBMCs incubated with single HMOs. It counts as cell-based, human. The following applies: PBMCs of 3 donors, 0.5 mg/ml HMO, 5 h, average, control set as 1, GAPDH reference gene. As for the experimental part:
as §1, §2, §3, §4, §5, §6

For a further assay, the system named is CD36. Put plainly: PCR gene expression of CD36 in PBMCs incubated with single HMOs. The conditions noted are these: PBMCs of 3 donors, 0.5 mg/ml HMO, 5 h, average, control set as 1, GAPDH reference gene. In kind it is cell-based, human. How it is done:
as §1, §2, §3, §4, §5, §6

The next assay deals with Primary human adipocytes. The assay can be described thus: Adipocyte glucose uptake assay (3H-2-deoxyglucose). It counts as cell-based. The following applies: 2 hours incubation; compared with vehicle control DMSO and insulin 100 nM positive control; LPS 2 ng/mL. From the text:
• 1. Subcutaneous preadipocytes from Zen-Bio Inc were thawed and plated into appropriate experimental plate format. • 2. Upon thawing cells, culturing followed differentiation schedule below: • Day Treatment • 1 Plate cells in PM-1 • 2 Differentiate cells using DM-2 • 9 Feed cells Maintenance medium AM-1 • 16 Assay cells for lipid accumulation, lipolysis, glucose uptake or RNAseq. • 1. Primary human adipocytes were differentiated in 96-well isoplates • 2. At 14 days post differentiation, the cells were treated with glucose uptake starvation media (Zen-Bio Inc) overnight. • 3. The next morning, the cells were washed with assay buffer and the cells were treated with compounds in glucose assay buffer containing ^3H-2-deoxyglucose cocktail and the cells were incubated at 37° C., 5% CO2 and allowed to incubate for 2 hours. • 4. After 2 hours, the cells were washed with PBS, lysed, and mixed with Optiphase “Supermix” scintillation fluid (Zen-Bio Inc). The Counts Per Minute (CPM) of each well measured. • Vehicle control: DMSO (control) • Zen Bio Insulin positive control: 100 nM (insulin) • Control for possible endotoxin contamination of pHMOs: […]

In another assay the test system is CD14+ CD36+ PBMC's. Put plainly: Cholesterol uptake (Dil oxLDL) by FACS in PBMCs. It counts as cell-based. The conditions noted are these: 0.5 mg/ml, 4 hrs pre-incubation then 10 ug/ml Dil oxLDL 1 hour; gated on CD14+ CD36+ cells; FIG. 1.
The next assay concerns ABCA1. The assay can be described thus: PCR gene expression of ABCA1 in PBMCs incubated with single HMOs. It counts as cell-based, human. The conditions noted are these: PBMCs of 3 donors, 0.5 mg/ml HMO, 5 h, average, control set as 1, GAPDH reference gene. How it is done: as §1, §2, §3, §4, §5, §6
2′FL was included too as it was expected that the most abundant HMO in human milk would show changes in any of these systems. […]

In the case of 3-Fucosyllactose [3FL], the “IL19 gene expression relative to Polymyxin B control” value in the assay on IL19 is reported as 1.06 fold. Moreover, in the assay on GPR43/FFAR2, the “FFAR2 gene expression relative to Polymyxin B control” value is on record as 1.18 fold. Further, the “CD36 gene expression relative to Polymyxin B control” value in the assay with CD36 was found to be 0.98 fold.
In the case of `CC(=O)N[C@H]1[C@H](O[C@H]2[C@@H](O)[C@@H](CO)O[C@@H](O[C@H]3[C@H](O)[C@@H](O)C(O)O[C@@H]3CO)[C@@H]2O)O[C@H](CO)[C@@H](O[C@@H]2O[C@H](CO)[C@H](O)[C@H](O)[C@H]2O)[C@@H]1O` (mixture of isomers) [LNnT, lacto-N-neotetraose], in the assay on IL19, the “IL19 gene expression relative to Polymyxin B control” value is recorded as 0.93 fold. Moreover, the “FFAR2 gene expression relative to Polymyxin B control” value with GPR43/FFAR2 was found to be 0.93 fold. Besides, in the assay with CD36, the “CD36 gene expression relative to Polymyxin B control” value was 0.93 fold.
Turning to `C[C@@H]1O[C@@H](O[C@H]2[C@H](O[C@H]3[C@H](O)[C@@H](O)C(O)O[C@@H]3CO)O[C@H](CO)[C@H](O)[C@@H]2O)[C@@H](O)[C@H](O)[C@@H]1O` (stereo partly drawn) [2′FL, 2′-fucosyllactose], the “glucose uptake (CPM of 3H-2-deoxyglucose)” value in the assay on Primary human adipocytes was “not significantly different from the vehicle control”. The “FFAR2 gene expression relative to Polymyxin B control” value in the assay on GPR43/FFAR2 came out at 0.72 fold. In the assay with CD14+ CD36+ PBMC's, the “cholesterol level in the cell, % of original value (MFI vs no glycan control with Dil oxLDL)” value is listed as “about 91%”. Besides, the “ABCA1 gene expression relative to Polymyxin B control” value with ABCA1 is recorded as 1.09 fold. The “CD36 gene expression relative to Polymyxin B control” value with CD36 is reported as 0.67 fold.
Consider `CC(=O)N[C@H]1[C@H]([C@H](O)[C@H](O)CO)O[C@@](O[C@H]2[C@@H](O)[C@@H](CO)O[C@@H](O[C@H]3[C@H](O[C@@H]4O[C@@H](C)[C@@H](O)[C@@H](O)[C@@H]4O)[C@@H](O)C(O)O[C@@H]3CO)[C@@H]2O)(C(=O)O)C[C@@H]1O` (stereo partly drawn) [3S3FL], for which, in the assay with IL19, the “IL19 gene expression relative to Polymyxin B control” value worked out at 0.94 fold. In addition, in the assay on GPR43/FFAR2, the “FFAR2 gene expression relative to Polymyxin B control” value amounted to 1.03 fold. Moreover, the “CD36 gene expression relative to Polymyxin B control” value in the assay on CD36 is given as 0.90 fold.
`CC(=O)N[C@H]1[C@H]([C@H](O)[C@H](O)CO)O[C@@](O[C@H]2[C@@H](O)[C@@H](CO)O[C@@H](O[C@H]3[C@H](O)[C@@H](O)C(O)O[C@@H]3CO)[C@@H]2O)(C(=O)O)C[C@@H]1O` (stereo partly drawn) [3′SL, 3′-Sialyllactose]: the “IL19 gene expression relative to Polymyxin B control” value in the assay on IL19 is 1.24 fold. Further, the “FFAR2 gene expression relative to Polymyxin B control” value in the assay with GPR43/FFAR2 came out at 1.25 fold. Moreover, the “CD36 gene expression relative to Polymyxin B control” value in the assay with CD36 came out at 0.87 fold.
In the case of `CC(=O)N[C@H]1[C@H]([C@H](O)[C@H](O)CO)O[C@@](OC[C@H]2O[C@@H](O[C@H]3[C@H](O)[C@@H](O)[C@H](O)O[C@@H]3CO)[C@H](O)[C@@H](O)[C@H]2O)(C(=O)O)C[C@@H]1O` [6′SL, 6′-Sialyllactose], the “IL19 gene expression relative to Polymyxin B control” value in the assay with IL19 stood at 1.05 fold. In addition, the “FFAR2 gene expression relative to Polymyxin B control” value with GPR43/FFAR2 is given as 1.83 fold. The “CD36 gene expression relative to Polymyxin B control” value in the assay on CD36 amounted to 0.93 fold.
Consider `CC(=O)N[C@H]1[C@H](O[C@H]2[C@@H](O)[C@@H](CO)O[C@@H](O[C@@H]([C@H](O)[C@@H](O)C=O)[C@H](O)CO)[C@@H]2O)O[C@H](CO[C@]2(C(=O)O)C[C@H](O)[C@@H](NC(C)=O)[C@H]([C@H](O)[C@H](O)CO)O2)[C@@H](O)[C@@H]1O[C@@H]1O[C@H](CO)[C@H](O)[C@H](O[C@]2(C(=O)O)C[C@H](O)[C@@H](NC(C)=O)[C@H]([C@H](O)[C@H](O)CO)O2)[C@H]1O` [DSLNT, disialyllacto-N-tetraose], for which the “ABCA1 gene expression relative to Polymyxin B control” value in the assay on ABCA1 is on record as 2.02 fold.
With `C[C@@H]1O[C@@H](O[C@H]2[C@H](O[C@H]3[C@H](O[C@@H]4O[C@@H](C)[C@@H](O)[C@@H](O)[C@@H]4O)[C@@H](O)C(O)O[C@@H]3CO)O[C@H](CO)[C@H](O)[C@@H]2O)[C@@H](O)[C@H](O)[C@@H]1O` (stereo partly drawn) [LDFT], in the assay on IL19, the “IL19 gene expression relative to Polymyxin B control” value is given as 0.75 fold. Moreover, the “FFAR2 gene expression relative to Polymyxin B control” value with GPR43/FFAR2 is recorded as 1.64 fold. Besides, the “CD36 gene expression relative to Polymyxin B control” value in the assay with CD36 is 1.00 fold.
`CC(=O)N[C@H]1[C@H](O[C@H]2[C@@H](O)[C@@H](CO)O[C@@H](O[C@H]3[C@H](O)[C@@H](O)C(O)O[C@@H]3CO)[C@@H]2O)O[C@H](CO)[C@@H](O)[C@@H]1O[C@@H]1O[C@H](CO)[C@H](O)[C@H](O)[C@H]1O` (stereo partly drawn) [LNT, lacto-N-tetraose]: the “IL19 gene expression relative to Polymyxin B control” value with IL19 amounted to 0.93 fold. For the same molecule, the “FFAR2 gene expression relative to Polymyxin B control” value in the assay on GPR43/FFAR2 was determined as 0.93 fold. Also, the “CD36 gene expression relative to Polymyxin B control” value in the assay on CD36 came to 0.93 fold.
Take `CC(=O)N[C@H]1[C@H](O[C@H]2[C@@H](O)[C@@H](CO)O[C@@H](O[C@@H]([C@H](O)[C@@H](O)C=O)[C@H](O)CO)[C@@H]2O)O[C@H](CO[C@]2(C(=O)O)C[C@H](O)[C@@H](NC(C)=O)[C@H]([C@H](O)[C@H](O)CO)O2)[C@@H](O)[C@@H]1O[C@@H]1O[C@H](CO)[C@H](O)[C@H](O)[C@H]1O` [LSTb, sialyllacto-N-tetraose b]: the “IL19 gene expression relative to Polymyxin B control” value in the assay on IL19 was determined as 1.31 fold. Also, the “CD36 gene expression relative to Polymyxin B control” value in the assay with CD36 was 0.75 fold.
As for `CC(=O)N[C@H]1[C@H](O[C@H]2[C@@H](O)[C@@H](CO)O[C@@H](O[C@H]3[C@H](O)[C@@H](O)C(O)O[C@@H]3CO)[C@@H]2O)O[C@H](CO)[C@@H](O[C@@H]2O[C@H](CO[C@]3(C(=O)O)C[C@H](O)[C@@H](NC(C)=O)[C@H]([C@H](O)[C@H](O)CO)O3)[C@H](O)[C@H](O)[C@H]2O)[C@@H]1O` (stereo partly drawn) [LSTc], the “IL19 gene expression relative to Polymyxin B control” value in the assay with IL19 was 1.25 fold. Further, the “FFAR2 gene expression relative to Polymyxin B control” value with GPR43/FFAR2 came to 1.02 fold. In addition, the “CD36 gene expression relative to Polymyxin B control” value in the assay on CD36 is 0.90 fold.
Taken in the same sequence, the figures for LNFP-I were 1.89 fold, 0.86 fold and 0.85 fold.
As for Lacto-N-fucopentaose III [LNFP-III], the “CD36 gene expression relative to Polymyxin B control” value in the assay with CD36 is given as 0.08 fold; in the assay with CD36 (listed as LNF-III) it was “reduce”.
As for Lipopolysaccharide [LPS], the “glucose uptake (CPM of 3H-2-deoxyglucose)” value in the assay on Primary human adipocytes was “did not upregulate glucose uptake at all”.
Regarding lactodifucoheaxose II [LNDFH-II], the “ABCA1 gene expression relative to Polymyxin B control” value in the assay with ABCA1 turned out to be 2.16 fold.
